Test results taken from US20100323990A1, “SHIP 1 MODULATOR PRODRUGS” (THE UNIVERSITY OF BRITISH COLUMBIA, priority 2006, published 2010).

Columns and labels:
LNCaP cells = assay: PKB activation in LNCaP cells, which do not express SHIP; type: cell-based, human; conditions: AQX-016A at doses up to 60 μM
Procedure: The ability of AQX-016A to inhibit activation of PIP3-dependent downstream signalling proteins in SHIP^+/+ vs SHIP^−/− was assessed. LPS stimulation of macrophages results in PKB phosphorylation. […] Similar protein loading was confirmed by reblotting with either antibodies to PKB or Grb2. […] Thus, AQX-016A inhibits PIP3-regulated intracellular signal transduction events in SHIP expressing hematopoietic cells, but not in SHIP-deficient hematopoietic or non-hematopoietic cells.

Mast cells = assay: Stimulation of mast cells by FcεRI crosslinking (Assay 4); type: cell-based; conditions: test compound 30 min prior to DNP-HSA
Procedure: Assay 1) In vitro testing in a SHIP enzyme assay. Test compounds were dissolved in a suitable solvent (e.g. EtOH, DMSO and others) and diluted into aqueous buffer (20 mM Tris HCl, pH 7.5 and 10 mM MgCl2). SHIP enzyme assays were performed in 96-well microtitre plates with 10 ng of enzyme/well in a total volume of 25 μL of 20 mM Tris HCl, pH 7.5 and 10 mM MgCl2. SHIP enzyme was incubated with test extracts (provided in solvent) or vehicle for 15 min at 23° C. before the addition of 100 μM inositol-1,3,4,5-tetrakisphosphate (Echelon Biosciences Inc, Salt Lake City, Utah). After 20 min at 37° C. and the amount of inorganic phosphate released assessed by the addition of Malachite Green reagent and absorbance measurement at 650 nm. Assay 2) Macrophage TNF-α production. J774.1a macrophage cells were treated with 10 μg/mL of test compound dissolved in solvent (e.g. cyclodextran) for 40 minutes prior to the addition of 100 ng/mL LPS. Culture supernatants were collected after 2 hr and 5 hr for TNF-α determination by ELISA. Assay 3) Macrophage TNF-α NO assay. J774.1a macrophage cells were treated with 10 μg/ml of test compound dissolved in solvent for 40 minutes prior to the addition of LPS. Culture supernatants were collected after 24 hr. for determination of NO concentration using the Griess reagent. Assay 4) Stimulation of mast cells by FcεRI crosslinking. Mast cells were pre-loaded overnight in BMMC medium lacking IL-3 with 0.1 μg/ml anti-DNP IgE (SPE-7, Sigma, Oakville, Ont). For calcium flux measurements, cells were incubated with 2 μM fura 2-acetoxymethyl ester (Molecular Probes, Eugene, Oreg.) in Tyrode's buffer at 23° C. for 45 min. Cells were then washed and incubated in the presence of the test compound 30 min prior to stimulation with the indicated concentration of DNP-human serum albumin (DNP-HSA). Calcium influx was monitored by spectrofluorometry as described previously. For analysis of intracellular signaling, cells were pre-loaded with anti-DNP IgE as above, pre-treated with the test compound for 30 min at 37° C. and stimulated with 20 ng/ml DNP-HSA for 5 min. Total cell lysates were then prepared and analyzed for phospho-PKB, phospho-p38^MAPK, phospho-MAPK, Grb-2 (Cell Signalling, Mississauga, Ont) and SHIP^6 by immunoblot analysis. Assay 5) Mouse acute cutaneous anaphylaxis model. […] The ability of SHIP activators to reduce tumor cell survival was assessed in MM cell lines treated with the test compound. The lines OPM1, OPM2, MM.1S and RPMI 8226 were plated at a density of 1×10^5 cells/mL in 200 μL of medium with various concentrations of the test compound, and viable cell numbers were determined on day 3 and day 5 by trypan blue exclusion. […]

Structure (SMILES)	PKB phosphorylation in LNCaP cells (LNCaP cells)	Assay 4: Stimulation of mast cells by FcεRI crosslinking, desired activity (Mast cells)
Cc1cc(O)c(O)c2c1[C@]1(C)CCC3C(C)(C)CCC[C@]3(C)[C@H]1C2 (some centres unmarked) [AQX-016A]	no effect	
Cc1cc(O)cc2c1[C@]1(C)CCC3C(C)(C)CCC[C@]3(C)[C@H]1C2 (some centres unmarked) [Compound 100]		+
